# Data published in patent US6897019B1, “Methods for treating and preventing insulin resistance and related disorders” (priority 1998, dated 2005).
# Entries after “also recorded” stand apart in the source; their conditions may differ.
# What was measured:
# 3T3-L1 adipocytes [1] = experiment: TNF-α induced FFA release from 3T3-L1 adipocytes (NEFA-C colorimetric kit); assay type: cell-based, Mouse; details: 24 hours
# Protocol: (§1) Differentiated 3T3-L1 adipocytes cultured in 12 well plates were incubated overnight in DMEM+0.5% BSA in the absence of serum. The following morning, the cells were incubated in the presence or absence of 2 mM or 20 mM sodium salicylate (NaSal) and treated with recombinant murine TNF-α (m TNF-α; Genzyme; Cambridge, Mass.) with or without 17 μM 15-deoxy-^12,14-PGJ2 (“PGJ2”; Cayman Chemical; Ann Arbor, Mich.) or 10 μM BRL 49653 (“BRL”; Smith Kine Beecham (Hamish Ross) (King of Prussia, Pa.)) for 24 hours. The glycerol content in the culture medium was determined using a colorimetric assay (GPO-Trinder, Sigma, St Louis, […].). Protein content was determined using the BCA (bicinchonic acid) protein assay (Pierce, Rockford, Ill.). The results are indicated as nmol glycerol per mg protein.
# In this example, cells were treated for 24 hours as described above, and FFA levels in the culture medium were determined using a colorimetric kit (NEFA-C, WAKO Pure Chemicals, Osaka, Japan).
# 3T3-L1 adipocytes [2] = experiment: Lipolysis (glycerol in culture medium) of 3T3-L1 adipocytes with or without TNF-α; assay type: cell-based, Mouse; details: for reduction of the increase in glycerol release associated with TNF-α: then 24 hours TNF-α plus BRL 1 μM; for blocked share of the increase in glycerol release due to TNF-α: BRL 10 μM or PGJ2 15 μM, last 24 hours; for increase in glycerol accumulation versus untreated controls: last 24 hours of 5-day treatment
# Protocol: 3T3-L1 adipocytes used in this example were obtained from 3T3-L1 fibroblasts as follows. 3T3-L1 fibroblasts (ATCC Deposit NO. CL-173, described in U.S. Pat. No. 4,003,789) were cultured in Dulbecco's Modified Eagle's Medium (DMEM) containing 10% bovine calf serum, and induced to differentiate into adipocytes using standard protocols, as described, e.g., in Kohanski et al. (1996) J. Biol. Chem. 261:12272. Adipocytes were used 10-15 days after the differentiation protocol was initiated.
# as §1
# Accordingly, 3T3-L1 adipocytes were treated with BRL at 10 μM, 1 μM or 1 nM and TNF-α as described above, and the amount of glycerol was determined after 24 hours.
# 3T3-L1 adipocytes were treated with TNF-α (2 or 10 ng/ml), TNF-α plus BRL at 10 μM, TNF-α plus PGJ2 at 15 μM, or BRL or PGJ2 alone for 5 days. The media was replaced everyday and collected on day 5 to measure accumulation of glycerol.
# […] The glycerol content in the culture medium was determined as described above.
# 3T3-L1 adipocytes prepared as described in Example 1 were preincubated with various amounts (0-50 μM) of the p38 kinase inhibitor SB203580 and then treated with 10 ng/ml TNF-α for 24 hours and the amount of glycerol in the culture medium determined as described above. […]
# ERK1/2 [3] = experiment: ERK 1/2 kinase assay (MBP substrate) on extracts of treated 3T3-L1 adipocytes; assay type: cell-based, Mouse
# Protocol: In this example, 3T3-L1 cells were treated as described in Example 2, and cell extracts were used in an ERK 1/2 kinase assay, using MBP (myelin basic protein) as a substrate. The assay used is described in Boulton et al. (1991) Cell Reg. 2: 357.
# (§2) 3T3-L1 adipocytes prepared as described in Example 1 were pretreated for 3 hours with or without 20 mM NaSal or 100 μM PD98059 and then treated for 15 minutes with or without 10 ng/ml mTNF-α and with or without 10 μM BRL. Cell extracts were then prepared and used in ERK 1/2 kinase and JNK-1 kinase assays, as described above.
# (§3) 3T3-L1 cells were pretreated for 3 days with 17 μM of PGJ2 and then for 15 minutes with 10 ng/ml TNF-α. The amount of phosphorylated (thus activated) JNK-1, ERK1/2, and p38 was determined by Western blot using an antibody specifically recognizing phosphorylated forms of the proteins. As a control, the total amount of JNK-1, ERK1/2 and p38 protein was determined by Western blot using an antibody recognizing the phosphorylated and non phosphorylated forms of the protein. The activity of ERK1/2 and JNK kinases was also determined in a kinase assay using MBP and a portion of c-jun, respectively, as substrate.
# p42/1p44 MAP kinases = details: FS4 fibroblasts; Schwenger et al. 1996; cited from earlier work
# JNK = details: FS4 fibroblasts; Schwenger et al. 1997; cited from earlier work
# JNK-1 [4] = experiment: JNK-1 kinase assay (c-jun substrate) on extracts of treated 3T3-L1 adipocytes; assay type: cell-based, Mouse
# Protocol: 3T3-L1 adipocytes were pretreated for 3 hours with or without 20 mM NaSal, with or without 100 μM MAP kinase kinase (MEK) inhibitor PD98059 (Biomol; Cat. No. EI-360) and then for 15 minutes with 10 ng/ml mTNF-α. JNK-1 kinase assays were then performed with extracts of each of these cell cultures on an N-terminal portion of c-jun, as described in Derjarde et al. (1994) Cell 76: 1025.
# as §2, §3
# human adipocytes = experiment: TNF-α induced lipolysis in primary cultures of human adipocytes; assay type: cell-based; details: PD98059 72 hours pretreatment, then 24 hours 100 ng/ml human TNF-α
# Protocol: Similar results were also obtained using primary cultures of human adipocytes. Primary cultures of human adipocytes, obtained from Zen-Bio were pretreated for 72 hours with PD98059 and then for 24 hours with 100 ng/ml of human TNF-α.
# p38 = experiment: Western blot of phosphorylated p38 in 3T3-L1 cells; assay type: cell-based, Mouse; details: 3 days 17 μM PGJ2, then 15 minutes 10 ng/ml TNF-α
# Protocol: as §3
# 3T3-L1 adipocytes [5] = experiment: Catecholamine (isoproterenol)-induced glycerol release from 3T3-L1 adipocytes; assay type: cell-based, Mouse; details: BRL or PGJ2
# ERK1/2 [6] = experiment: Western blot of phosphorylated ERK1/2 in 3T3-L1 cells; assay type: cell-based, Mouse; details: 3 days 17 μM PGJ2, then 15 minutes 10 ng/ml TNF-α
# Protocol: as §3
# JNK-1 [7] = experiment: Western blot of phosphorylated JNK-1 in 3T3-L1 cells; assay type: cell-based, Mouse; details: 3 days 17 μM PGJ2, then 15 minutes 10 ng/ml TNF-α
# Protocol: as §3
# [8] = Ehrman et al. 1997; cited from earlier work
# HSL = experiment: Western blot of HSL protein in 3T3-L1 adipocytes; assay type: cell-based, Mouse; details: TNF-α 10 ng/ml, 24 hours
# Protocol: (§4) 3T3-L1 adipocytes were treated with TNF-α at 10 ng/ml, TNF-α plus BRL (10 μM), or BRL alone for 24 hours, following which cell lysates were collected and analyzed by Western blotting using antibodies against HSL and perilipin A proteins. Perilipin antibodies were generated by immunization of rabbits with a peptide identical to amino acids 9-23 of the rat perilipin protein (Greenberg et al. (1993) PNAS 90:12035). Antibodies to HSL were prepared by injecting a peptide based upon the rat HSL sequence (GeneBank) (KDLSFKGNSPEPSDSPEMC; SEQ ID NO: 1) into rabbits. Antibodies were subsequently affinity purified and used for Western blotting at a dilution of 1:1500. Western blotting was performed as follows: adipocytes are briefly rinsed with 1 ml of phosphate saline buffer (PBS, pH 7.4). Proteins were extracted by adding 200 μl of lysis buffer containing 50 mM Hepes, pH 7.4, 100 mM Nacl, 2 mM EDTA, 5% SDS, 0.1 mM Na3V) 4 , 50 mM NaF, 1 mM benzamidine, 100 μM AEBSF, adn 10 μg/ml aprotinin. Equivalent amounts of protein were separated by 10% SDS-PAGE, electrophoretically transferred to nitrocellulose membranes, incubated with primary antibody and subsequentely with donkey anti-rabbit IgG conducaged with horseradish peroxidase. Proteins were detected with enhanced chemiluminescence (ECL) system (Amersham).
# perilipin A = experiment: Western blot of perilipin A protein in 3T3-L1 adipocytes; assay type: cell-based, Mouse; details: TNF-α 10 ng/ml, 24 hours
# Protocol: as §4, with “(Amersham). […]” for “(Amersham).”
# [9] = 3 hours pretreatment with 20 mM NaSal or 100 μM PD98059, then 15 minutes 10 ng/ml TNF-α
# [10] = PD98059, pretreatment for 3 hours
# [11] = 3 days 17 μM PGJ2, then 15 minutes 10 ng/ml TNF-α
compound,measurement,setting,value
"CN(CCOc1ccc(CC2SC(=O)NC2=O)cc1)c1ccccn1 (stereo not shown) [BRL, rosiglitazone]",effect on FFA release,"3T3-L1 adipocytes [1]; BRL alone, no TNF-α",no effect
same,reduction of TNF-α induced FFA release,"3T3-L1 adipocytes [1]; BRL, 10 ng/ml TNF-α",about 90%
same,reduction of the increase in glycerol release associated with TNF-α,3T3-L1 adipocytes [2]; 24 hour pretreatment with TNF-α 2 ng/ml,about 65%
same,reduction of the increase in glycerol release associated with TNF-α,3T3-L1 adipocytes [2]; 24 hour pretreatment with TNF-α 10 ng/ml,about 50%
same,inhibition of basal lipolysis,"3T3-L1 adipocytes [2]; 72 hour pretreatment with BRL, no TNF-α",approximately 30%
same,blocked share of the increase in glycerol release due to TNF-α,"3T3-L1 adipocytes [2]; 5 days, TNF-α 2 or 10 ng/ml",about 100%
same,inhibition of TNF-α induced lipolysis,"3T3-L1 adipocytes [2]; BRL, Example 6 (72 hour pretreatment context)",> 90%
same,earliest time point at which the effect of TNF-α on glycerol release began to reverse,3T3-L1 adipocytes [2]; after addition of BRL to TNF-α pretreated cells,6 h
same,"reduction in activation of ERK, factor","ERK1/2 [3]; 72 hour pretreatment with 5 μM BRL, then TNF-α 10 ng/ml 15 minutes in the presence of BRL",about 2.5 factor
"O=C([O-])c1ccccc1O.[Na+] [NaSal, sodium salicylate]",ability of TNF-α to increase lipolysis,3T3-L1 adipocytes [2]; 2 mM NaSal,partially reduced
same,"inhibition of glycerol production, factor","3T3-L1 adipocytes [2]; 2 mM NaSal, induced by 10 ng/ml TNF-α, 24 hours",~2 factor
same,ability of TNF-α to increase lipolysis,3T3-L1 adipocytes [2]; 20 mM NaSal,completely blocked
same,inhibition of TNF-α induced lipolysis,"3T3-L1 adipocytes [2]; 2 or 20 mM NaSal, TNF-α 2 ng/ml (Panel A) or 20 ng/ml (Panel B), 24 hours",significantly inhibited
same,"inhibition of glycerol production, factor","3T3-L1 adipocytes [2]; induced by 2 ng/ml TNF-α, NaSal 2 or 20 mM, 24 hours",3-4 factor
same,inhibition of TNF-induced activation of p42/1p44 MAP kinases,p42/1p44 MAP kinases,capable of inhibiting
same,inhibition of ERK1/2 activation,"ERK1/2 [3]; 20 mM NaSal 3 hours, then 15 minutes 10 ng/ml TNF-α",about two
same,inhibition of TNF-induced activation of JNK,JNK,capable of inhibiting
same,TNF-α induced JNK-1 activation (kinase activity),JNK-1 [4]; [9],significantly reduced; also recorded: decreases
COc1cccc(-c2cc(=O)c3ccccc3o2)c1N [PD98059],"decrease of TNF-α induced lipolysis, factor","3T3-L1 adipocytes [2]; 100 μM PD98059, 24 hours pretreatment, then TNF-α 24 hours",less than 2 factor
same,reduction of TNF-α induced lipolysis,3T3-L1 adipocytes [2]; [10],about 76%
same,"reduction of TNF-α induced lipolysis, factor",3T3-L1 adipocytes [2]; [10],about 3 factor
same,TNF-α induced lipolysis in human cells,human adipocytes,reduced
same,"increase of MBP phosphorylation in the presence of TNF-α and inhibitor, factor","ERK1/2 [3]; 100 μM PD98059 3 hours, then 15 minutes 10 ng/ml TNF-α",less than two
same,inhibition of MAP kinase activation,"ERK1/2 [3]; 100 μM PD98059 (Example 6, FIG. 6)",at least 90%
same,TNF-α induced ERK1/2 activation (kinase activity),ERK1/2 [3]; [9],inhibited
"CCCCC/C=C/C=C1/C(=O)C=C[C@@H]1C/C=C\CCCC(=O)O [PGJ2, 15-deoxy-^12,14-PGJ2]",phosphorylation of p38,p38,significantly reduces
same,block of isoproterenol-induced glycerol release,3T3-L1 adipocytes [5],neither BRL nor PGJ2 was able to block
same,inhibition of TNF-α induced lipolysis,"3T3-L1 adipocytes [2]; 10 μM BRL or 17 μM PGJ2, TNF-α 2 or 10 ng/ml, 24 hours",significantly inhibited; also recorded: inhibit
same,blocked share of the increase in glycerol release due to TNF-α,"3T3-L1 adipocytes [2]; 5 days, TNF-α 2 or 10 ng/ml",about 100%
same,glycerol accumulation versus control (untreated) cells,"3T3-L1 adipocytes [2]; BRL or PGJ2 alone, 5 days",not different from levels measured in control
same,further reduction of lipolysis when added to NaSal,"3T3-L1 adipocytes [2]; added to cells incubated with 20 mM NaSal, TNF-α, 24 hours",did not further reduce lipolysis
same,phosphorylation of ERK1/2,ERK1/2 [6],significantly reduces
same,TNF-α induced increase in ERK1/2 kinase activity,ERK1/2 [3]; [11],significantly inhibits
same,phosphorylation of JNK-1,JNK-1 [7],significantly reduces
same,TNF-α induced increase in JNK-1 kinase activity,JNK-1 [4]; [11],to a lesser extent
C[S+]([O-])c1ccc(-c2nc(-c3ccncc3)c(-c3ccc(F)cc3)[nH]2)cc1 (stereo not shown) [SB203580],release of glycerol from the adipocytes,"3T3-L1 adipocytes [2]; SB203580 0-50 μM preincubation, then 10 ng/ml TNF-α 24 hours",increases the release of glycerol
same,concentration up to which glycerol release is proportional to the amount added,"3T3-L1 adipocytes [2]; SB203580, 10 ng/ml TNF-α 24 hours",≤ 20 µM
"Cc1c(C)c2c(c(C)c1O)CCC(C)(COc1ccc(CC3SC(=O)NC3=O)cc1)O2 (stereo not shown) [troglitazone, 5-[[4-[(3,4-dihydro-6-hydroxy-2,5,7,8-tetramethyl-2H-1-benzopyran-2-yl)methoxy]phenyl]methyl]-2,4-thiazolidinedione]",efficacy in PCOS,[8],effective
TNF-α,HSL protein expression versus untreated controls,HSL,slightly decreased
same,increase in glycerol accumulation versus untreated controls,3T3-L1 adipocytes [2]; 2 ng/ml TNF-α,~10 fold
same,increase in glycerol accumulation versus untreated controls,3T3-L1 adipocytes [2]; 10 ng/ml TNF-α,~13 fold
same,expression of perilipin A protein versus untreated controls,perilipin A,markedly decreased
same,increase in phosphorylation of the MBP substrate (ERK1/2 activation),"ERK1/2 [3]; 10 ng/ml TNF-α, 15 minutes",seven
